# Laboratory results reported in patent US11197857B2, “Combination therapy” (GlaxoSmithKline Intellectual Property Development Limited, priority 2016, dated 2021).
# Legend:
# [1] = system: Toledo (human DLBCL) xenograft; assay: Toledo xenograft efficacy
# [2] = system: panel of 4 ccRCC cell lines
# Melanoma cell lines = assay: 6-day growth-death assay (Cell Titer Glo); assay type: cell-based, human
# [3] = system: human renal cell carcinoma xenografts (ACHN); assay: ACHN xenograft efficacy; assay type: in vivo, mouse
# PRMT9 = PRMT9 (Homo sapiens, UniProt Q6P2P2); assay: PRMT family radioactive assay; assay type: biochemical; conditions: 60 minute SAM:Enzyme:Compound A preincubation
# Chain of PRMT9 (Q6P2P2 whole entry): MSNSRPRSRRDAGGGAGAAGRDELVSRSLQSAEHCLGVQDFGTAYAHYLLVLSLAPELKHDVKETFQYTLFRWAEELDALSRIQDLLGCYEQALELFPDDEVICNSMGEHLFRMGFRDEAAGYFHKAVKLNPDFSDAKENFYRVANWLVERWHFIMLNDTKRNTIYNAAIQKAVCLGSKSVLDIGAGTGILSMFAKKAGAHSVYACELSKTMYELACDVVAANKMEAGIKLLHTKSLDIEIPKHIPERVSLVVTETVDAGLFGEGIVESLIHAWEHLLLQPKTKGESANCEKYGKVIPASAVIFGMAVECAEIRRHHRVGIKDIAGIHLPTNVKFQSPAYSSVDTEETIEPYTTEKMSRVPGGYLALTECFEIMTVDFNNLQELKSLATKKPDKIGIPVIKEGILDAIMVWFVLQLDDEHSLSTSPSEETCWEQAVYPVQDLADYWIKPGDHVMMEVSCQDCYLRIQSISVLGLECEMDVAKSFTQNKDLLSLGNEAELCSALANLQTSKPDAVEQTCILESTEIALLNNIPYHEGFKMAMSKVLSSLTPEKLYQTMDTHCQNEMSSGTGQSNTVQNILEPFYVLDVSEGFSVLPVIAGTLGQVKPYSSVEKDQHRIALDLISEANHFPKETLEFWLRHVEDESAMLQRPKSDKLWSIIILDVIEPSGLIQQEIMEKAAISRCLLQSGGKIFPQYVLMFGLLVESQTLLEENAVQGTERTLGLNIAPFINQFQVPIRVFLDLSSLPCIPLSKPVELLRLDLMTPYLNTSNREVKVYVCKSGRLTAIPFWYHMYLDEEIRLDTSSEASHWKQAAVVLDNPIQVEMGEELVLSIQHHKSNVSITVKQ
# rat 14-day MTD = conditions: […] mg/kg
# Toledo cells = system: Toledo cells
# Description: FIG. 18: Propidium iodide FACS analysis of cell cycle in human lymphoma cell lines. […] Data represents the average±SEM of biological replicates, n=2.
# SK-MEL-2 = assay: 6-day growth-death assay (Cell Titer Glo); assay type: cell-based, human
# Description: (§1) Cell Titer Glo was used to measure growth inhibition as previously described.
# HT144 = assay: 6-day growth-death assay (Cell Titer Glo); assay type: cell-based, human
# Description: as §1
# SK-MEL-5 = assay: 6-day growth-death assay (Cell Titer Glo); assay type: cell-based, human
# Description: as §1
# IGR-1 = assay: 6-day growth-death assay (Cell Titer Glo); assay type: cell-based, human
# Description: as §1
# MDA-MB-435S = assay: 6-day growth-death assay (Cell Titer Glo); assay type: cell-based, human
# Description: as §1
# COLO741 = assay: 6-day growth-death assay (Cell Titer Glo); assay type: cell-based, human
# Description: as §1
# A375 = assay: 6-day growth-death assay (Cell Titer Glo); assay type: cell-based, human
# Description: as §1
# Colon cancer cell lines = assay: 6-day growth-death assay (Cell Titer Glo); assay type: cell-based, human
# [4] = system: Prostate cancer cell lines; assay: 6-day growth-death assay (Cell Titer Glo); assay type: cell-based, human; conditions: 4 cell lines
# [5] = system: 196 human cancer cell lines; assay: 6-day growth-death assay (Cell Titer Glo); assay type: cell-based
# Kidney cancer cell lines = assay: 6-day growth-death assay (Cell Titer Glo); assay type: cell-based, human; conditions: 10 cell lines
# [6] = system: non-TNBC breast cancer cell lines; assay: cells; conditions: Homo sapiens, read-out: Median gIC50
# Description: Cell lines representing triple negative breast cancer (TNBC) are shown in orange; other subtypes are in blue.
# The growth of all cell lines was evaluated over time across a wide range of seeding densities to identify conditions that permitted proliferation throughout the entire 6-day assay. Cells were plated at the optimal seeding density and after overnight incubation, a 20-point 2-fold titration of compound was added and plates were incubated for 6 days. A replicate plate of cells was harvested at the time of compound addition to quantify the starting number of cells (T0). Values obtained after the 6 day treatment were expressed as a function of the T0 value and plotted against compound concentration. The T0 value was normalized to 100% and represents the number of cells at the time of compound addition. The data were fit with a 4 parameter equation to generate a concentration response curve and the growth IC50 (gIC50) was determined. The gIC50 is the midpoint of the ‘growth window’, the difference between the number of cells at the time of compound addition (To) and the number of cells after 6 days (DMSO control). The growth-death assay can be used to quantify the net population change, clearly defining cell death (cytotoxicity) as fewer cells compared to the number at the time of compound addition (To).
# AML cell lines = assay: 6-day growth-death assay (Cell Titer Glo); assay type: cell-based, human
# [7] = system: Bladder cancer cell lines; assay: 6-day growth-death assay (Cell Titer Glo); assay type: cell-based, human; conditions: 18 cell lines
# Lymphoma cell lines = assay: 6-day growth-death assay (Cell Titer Glo); assay type: cell-based, human; conditions: 59 cell lines
# NSCLC cell lines = assay: 6-day growth-death assay (Cell Titer Glo); assay type: cell-based, human; conditions: 25 cell lines
# [8] = Homo sapiens, read-out: Median gIC50
smiles,measurement,setting,value
CCOCC1(COCC)CCC(c2n[nH]cc2CN(C)CCNC)CC1 [Compound A],Body weight Difference (vs. vehicle),"[1]; 300 mg/kg QD oral, day 28",−3%
same,Regression,"[1]; 300 mg/kg QD oral, day 28",(37%)
same,Body weight Difference (vs. vehicle),"[1]; 450 mg/kg QD oral, day 28",−8%
same,Regression,"[1]; 450 mg/kg QD oral, day 28",(58%)
same,Body weight Difference (vs. vehicle),"[1]; 600 mg/kg QD oral, day 28",−7%
same,Regression,"[1]; 600 mg/kg QD oral, day 28",(62%)
same,Body weight Difference (vs. vehicle),"[1]; […] mg/kg QD oral, day 28",−4%
same,body weight loss,"[1]; any dose group, 150-600 mg/kg daily, 28 days",no significant body weight loss
same,doses at which regressions were observed,"[1]; oral, daily, 28 days",≥ 300 mg/kg
same,Body weight Difference (vs. vehicle),"[1]; second study, 37.5 mg/kg QD, day 25",−5%
same,Body weight Difference (vs. vehicle),"[1]; second study, 75 mg/kg BID, day 25",−4%
same,Body weight Difference (vs. vehicle),"[1]; second study, 75 mg/kg QD, day 25",−5%
same,Body weight Difference (vs. vehicle),"[1]; second study, 150 mg/kg QD, day 25",−7%
same,percent growth inhibition reached,"[2]; all cell lines evaluated, within 6 days",100%
same,concentration at which caspase cleavage occurred,[2]; only at the highest concentration,30 µM
same,% Cytotoxic (cell lines with negative Ymin-T0),"Melanoma cell lines; Melanoma, 7 cell lines",0%
same,% gIC100 < 2 μM (share of cell lines),"Melanoma cell lines; Melanoma, 7 cell lines",0%
same,Median gIC100,"Melanoma cell lines; Melanoma, 7 cell lines",29.33 µM
same,nature of effect,Melanoma cell lines; all melanoma lines,cytostatic
same,Regression,"[3]; 300 mg/kg QD oral, day 59",(2%)
same,Body weight Difference (vs. vehicle),"[3]; 300 mg/kg QD, day 59",−4%
same,Regression,"[3]; 450 mg/kg QD oral, day 59",(15%)
same,Body weight Difference (vs. vehicle),"[3]; 450 mg/kg QD, day 59",−7%
same,Regression,"[3]; 600 mg/kg QD oral, arm terminated at day 31",(6%)
same,Body weight Difference (vs. vehicle),"[3]; 600 mg/kg QD, arm terminated at day 31",−17%
same,body weight loss,[3]; 600 mg/kg daily,Significant body weight loss
same,Body weight Difference (vs. vehicle),"[3]; […] mg/kg QD, day 59",−3%
same,doses at which regressions were observed,"[3]; oral, daily, up to 59 days",≥ 300 mg/kg
same,inhibition of activity,PRMT9,failed to inhibit
same,Cave (total AUC or exposure) at MTD,rat 14-day MTD,2.1 µM
same,concentrations giving accumulation of cells in sub-G1,Toledo cells; beginning after 3 days of treatment,1000 nM
same,concentrations giving increase in sub-G1 population,Toledo cells; by day 7,100 nM
same,Ymin-T0,SK-MEL-2,35.9
same,gIC100,SK-MEL-2,22.37 ± 12.11 µM
same,Ymin-T0,HT144,124.9
same,gIC100,HT144,29.33 ± 0.00 µM
same,IC50,"SK-MEL-5; Homo sapiens, SK-MEL-5, read-out: gIC50",90 ± 30 nM
same,Ymin-T0,SK-MEL-5; SK-MEL-5,31.8
same,gIC100,SK-MEL-5; SK-MEL-5,27.09 ± 3.92 µM
same,Ymin-T0,IGR-1,507.0
same,gIC100,IGR-1,29.33 ± 0.00 µM
same,Ymin-T0,MDA-MB-435S,19.1
same,gIC100,MDA-MB-435S,29.33 ± 0.00 µM
same,Ymin-T0,COLO741,12.5
same,gIC100,COLO741,28.55 ± 1.40 µM
same,Ymin-T0,A375; A375,91.9
same,gIC100,A375; A375,29.33 ± 0.00 µM
same,IC50,"A375; Homo sapiens, A-375, read-out: gIC50",50 ± 30 nM
same,% Cytotoxic (cell lines with negative Ymin-T0),"Colon cancer cell lines; Colon, 34 cell lines",3%
same,% gIC100 < 2 μM (share of cell lines),"Colon cancer cell lines; Colon, 34 cell lines",0%
same,Median gIC100,"Colon cancer cell lines; Colon, 34 cell lines",29.33 µM
same,IC50,Colon cancer cell lines; [8],5.51 µM
same,% Cytotoxic (cell lines with negative Ymin-T0),[4],0%
same,% gIC100 < 2 μM (share of cell lines),[4],0%
same,Median gIC100,[4],29.34 µM
same,IC50,[5]; [8],2120 nM
same,% Cytotoxic (cell lines with negative Ymin-T0),"[5]; Total, 196 cell lines",23%
same,% gIC100 < 2 μM (share of cell lines),"[5]; Total, 196 cell lines",4%
same,Median gIC100,"[5]; Total, 196 cell lines",29.33 µM
same,% Cytotoxic (cell lines with negative Ymin-T0),Kidney cancer cell lines,0%
same,% gIC100 < 2 μM (share of cell lines),Kidney cancer cell lines,0%
same,Median gIC100,Kidney cancer cell lines,29.35 µM
same,IC50,[6],6.8 µM
same,number of cell lines in which cytotoxicity was induced,AML cell lines; 10 AML cell lines,5
same,% Cytotoxic (cell lines with negative Ymin-T0),"AML cell lines; AML, 10 cell lines",50%
same,% gIC100 < 2 μM (share of cell lines),"AML cell lines; AML, 10 cell lines",0%
same,Median gIC100,"AML cell lines; AML, 10 cell lines",16.72 µM
same,IC50,AML cell lines; [8],540 nM
same,% Cytotoxic (cell lines with negative Ymin-T0),[7],0%
same,% gIC100 < 2 μM (share of cell lines),[7],0%
same,Median gIC100,[7],29.33 µM
same,% Cytotoxic (cell lines with negative Ymin-T0),Lymphoma cell lines,54%
same,% gIC100 < 2 μM (share of cell lines),Lymphoma cell lines,14%
same,Median gIC100,Lymphoma cell lines,21.62 µM
same,% Cytotoxic (cell lines with negative Ymin-T0),NSCLC cell lines,16%
same,% gIC100 < 2 μM (share of cell lines),NSCLC cell lines,0%
same,Median gIC100,NSCLC cell lines,29.33 µM
